Reference: article PMC3904085 (Frontiers in Neuroscience, 2014)

Key:
[1] = target: T1, rat OX1 receptors (Rattus norvegicus, UniProt P56718); assay: cell-based
T1 sequence (P56718 1-416): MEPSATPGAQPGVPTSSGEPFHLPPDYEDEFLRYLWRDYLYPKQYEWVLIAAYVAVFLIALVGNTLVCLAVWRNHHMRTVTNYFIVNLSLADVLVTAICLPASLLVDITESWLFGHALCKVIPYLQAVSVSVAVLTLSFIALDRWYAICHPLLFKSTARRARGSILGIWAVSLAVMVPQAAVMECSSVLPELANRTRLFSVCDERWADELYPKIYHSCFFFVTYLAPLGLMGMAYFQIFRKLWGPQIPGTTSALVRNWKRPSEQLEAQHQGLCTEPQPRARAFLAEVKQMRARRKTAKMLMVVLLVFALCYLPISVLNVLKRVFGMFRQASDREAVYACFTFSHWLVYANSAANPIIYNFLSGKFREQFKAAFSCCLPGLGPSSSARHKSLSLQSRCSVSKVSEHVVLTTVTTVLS
Description: Recombinant human OX1 and OX2 receptors were stably expressed in HEK293 cells, or rat recombinant OX1 and OX2 receptors stably expressed in AV12 cells, and assessed for intracellular calcium mobilization using Fluo-3 dye (Molecular Probes, Eugene, OR). […] It was further diluted to 8 mM in 2.5 mM probenecid loading buffer which was made as described below. The human cell line was grown in DMEM/F-12 (3:1) supplemented with 10% FBS (heat-inactivated), 20 mM HEPES, 1% Penn/Strep, and 4 μg/ml Blasticidin (35,000 cells/well). The rat cell line was grown in DMEM supplemented with 10% FBS (heat-inactivated), 20 mM HEPES, 1% Penn/Strep, 4 μg/ml Blasticidin, and 1 mM sodium pyruvate (60,000 cells/well). […] Finally, plates were read on a fluorescence imaging plate reader (FLIPR; Molecular Devices, LLC, Sunnyvale, CA) instrument with a 50 μl addition of antagonist; cells were placed in the dark at room temperature for an additional 15 min; then read on FLIPR instrument with a 100 μl addition of an EC70 concentration of orexin A (for a total volume of 200 μl). […] Kb-values were calculated based on 10-point dilution curves using ActivityBase templates (ID Business Solutions, Ltd., Guildford, Surrey, UK). […]

[2] = target: T2, rat OX2 receptors (Rattus norvegicus, UniProt P56719); assay: cell-based
T2 sequence (P56719 1-460): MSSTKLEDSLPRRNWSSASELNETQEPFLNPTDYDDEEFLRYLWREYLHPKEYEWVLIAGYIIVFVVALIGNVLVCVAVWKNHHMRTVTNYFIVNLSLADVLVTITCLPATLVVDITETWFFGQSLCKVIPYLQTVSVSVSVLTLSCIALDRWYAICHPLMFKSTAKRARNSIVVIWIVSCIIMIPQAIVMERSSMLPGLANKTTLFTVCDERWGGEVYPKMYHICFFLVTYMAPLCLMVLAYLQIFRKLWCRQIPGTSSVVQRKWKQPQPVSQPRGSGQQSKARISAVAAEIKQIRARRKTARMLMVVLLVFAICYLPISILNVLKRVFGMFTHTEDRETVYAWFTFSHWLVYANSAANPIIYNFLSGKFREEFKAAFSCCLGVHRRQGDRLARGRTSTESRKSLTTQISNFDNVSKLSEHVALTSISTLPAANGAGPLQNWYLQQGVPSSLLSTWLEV

[3] = system: mice lacking OX1 receptors; assay: DRL 36-s schedule of reinforcement in OX1 KO mice; type: in vivo, mouse; settings: for Lever Presses Mean / Reinforcers Mean: OX1 KO mice DRL-36-s, raw data
Description: Rats were acclimated to housing conditions for 4 days, followed by sham dosing once daily for 3 days, prior to the experiment. For DRL experiments, male Sprague–Dawley rats weighing between 300 and 350 g at the beginning of the behavioral experiments (Holtzman, Madison, WI) were housed in pairs. For mouse DRL studies, male C57Bl/6 mice (Taconic Farms, Hudson, NY) or mice lacking either OX1 or OX2 receptors, around 8 weeks of age, were obtained from private breeding colonies at Taconic Farms (Hudson, NY). OX1 and OX2 receptor knockout mice were generated using in vitro fertilization of embryos in C57Bl/6 female mice with sperm harvested from male mice obtained from the University of Texas Southwestern Medical Center (Dallas, TX), and backcrossed for at least 10 generations. Mice and rats were housed in separate colony rooms, which were maintained at 22°C and 60% relative humidity. For rat DRL experiments, water was available for a 20-min period following the daily behavioral session. Based on recommendations from the animal care and use committee, the mouse DRL assay was developed using food deprivation rather than water deprivation. […] All experiments were conducted during the light cycle and in compliance with the Guide for the Care and Use of Laboratory Animals under protocols approved by a local animal care and use committee.
The levers in these chambers were mounted on one wall with an adjacent food magazine next to the lever in the middle of the wall. A reinforced response caused a clicker apparatus to activate and the pellet feeder to deposit one 45-mg sucrose pellet (BioServ, Frenchtown, NJ) into the food magazine. The house light, which was mounted on the ceiling, was turned on when the session began, remained on throughout the entire session, and was turned off at the end of the session. Each experimental chamber was enclosed in a melamine sound-attenuating cubicle and equipped with a white noise generator to provide masking noise.
Each mouse was initially trained under a variable time 60-s operant schedule for 5 days, followed by fixed ratio-1 ratio schedule for 5 days. After the mice had acquired lever-pressing behavior, they were trained during daily DRL 6-s sessions for ~1 week, then mice progressed through weekly ascending DRL requirements (12, 18, 24, 30 s) before moving to DRL 36-s sessions. […] Experimental sessions lasted for 45 min and were conducted 5 days/week during light hours.
Drugs were administered to the animals once or twice weekly with at least 1 week between subsequent drugs to minimize possible carryover effects. Drug treatments were administered on Tuesdays and Fridays. No treatments were administered on other test days. Wednesdays were control days. “Control” behavior was calculated as the pooled mean lever presses or reinforcers received during Wednesday sessions across all Wednesdays for the duration of each study. Performance was normalized to percent of control by dividing total responses (or reinforcers) for each drug or vehicle treatment by the mean number of responses (reinforcers) in the respective pooled control condition, multiplied by 100.
The data analyses were conducted on the raw response and reinforcement data. All behavioral data are expressed as the mean ± s.e.m. normalized to the control condition.

[4] = mice lacking OX1 receptors, 100 mg/kg

Row | Structure (SMILES) | Kb [1] | Kb [2] | Lever Presses Mean ([3]; dose 10 mg/kg) | Reinforcers Mean ([3]; dose 10 mg/kg) | Lever Presses Mean ([3]; dose 20 mg/kg) | Reinforcers Mean ([3]; dose 20 mg/kg) | Lever Presses Mean ([3]; dose 40 mg/kg) | Reinforcers Mean ([3]; dose 40 mg/kg) | Lever Presses Mean ([3]; dose 60 mg/kg) | Reinforcers Mean ([3]; dose 60 mg/kg) | Lever presses emitted, effect in words ([3]; mice lacking OX1 receptors, all doses 10–60 mg/kg) | Reinforcers received, effect in words ([3]; mice lacking OX1 receptors, at 10 and 40 mg/kg) | Lever Presses Mean ([3]; dose 100 mg/kg) | Reinforcers Mean ([3]; dose 100 mg/kg) | Lever pressing, effect in words [3, 4] | Reinforcers received, effect in words [3, 4]
1 | CNC(=O)[C@@H](c1ccccc1)N1CCc2cc(OC)c(OC)cc2[C@@H]1CCc1ccc(C(F)(F)F)cc1 [Almorexant (S)] | 3.2 ± 0.7 nM | 4.4 ± 1.6 nM | 111.38 | 33.00 | 124.75 | 30.50 | 108.25 | 34.63 | 110.13 | 29.13 | reduced the number of lever presses emitted | significant increase | – | – | – | –
2 | CNC(=O)[C@@H](c1ccccc1)N1CCc2cc(OC)c(OC)cc2[C@@H]1CCc1ccc(C(F)(F)F)cc1 [Almorexant (R)] | – | – | – | – | – | – | – | – | – | – | – | – | 103.75 | 28.88 | significant decrease | significant increases
